In ChEMBL document CHEMBL5335852, “The Promiscuous Flavin-Dependent Monooxygenase PboD from Aspergillus ustus Increases the Structural Diversity of Hydroxylated Pyrroloindoline Diketopiperazines” (J Nat Prod, 2024):
The source made the active and inactive calls.

How the values were obtained:
Type in all cases: functional, organism-based
Escherichia coli = assay: Antibacterial activity against Escherichia coli ATCC 35218 assessed as inhibition of bacterial growth incubated for 20 hrs by agar disk-diffusion method
Enterococcus faecalis = assay: Antibacterial activity against Enterococcus faecalis DSM 2570 assessed as inhibition of bacterial growth incubated for 20 hrs by agar disk-diffusion method
Klebsiella pneumoniae = assay: Antibacterial activity against Klebsiella pneumoniae DSM 26371 assessed as inhibition of bacterial growth incubated for 20 hrs by agar disk-diffusion method
Bacillus subtilis = assay: Antibacterial activity against Bacillus subtilis […] assessed as inhibition of bacterial growth incubated for 20 hrs by agar disk-diffusion method
Niallia circulans = assay: Antibacterial activity against Bacillus circulans NRRL B-380 assessed as inhibition of bacterial growth incubated for 20 hrs by agar disk-diffusion method
Staphylococcus aureus = assay: Antibacterial activity against Staphylococcus aureus ATCC29213 assessed as inhibition of bacterial growth incubated for 20 hrs by agar disk-diffusion method
Staphylococcus delphini = assay: Antibacterial activity against Staphylococcus delphini DSM 20771 assessed as inhibition of bacterial growth incubated for 20 hrs by agar disk-diffusion method
Pseudomonas aeruginosa = assay: Antibacterial activity against Pseudomonas aeruginosa ATCC 27853 assessed as inhibition of bacterial growth incubated for 20 hrs by agar disk-diffusion method

Measured: Activity

O=C1N[C@@H](Cc2c[nH]c3ccccc23)C(=O)N2[C@H]1C[C@@]1(O)c3ccccc3N[C@@H]21
inactive: all assays above

CSCC[C@@H]1NC(=O)[C@@H]2C[C@@]3(O)c4ccccc4N[C@H]3N2C1=O
inactive: all assays above

C[C@@H]1NC(=O)[C@@H]2C[C@@]3(O)c4ccccc4N[C@H]3N2C1=O
inactive: all assays above

CC(C)C[C@@H]1NC(=O)[C@@H]2C[C@@]3(O)c4ccccc4N[C@H]3N2C1=O
inactive: all assays above

O=C1N[C@@H](Cc2ccc(O)cc2)C(=O)N2[C@H]1C[C@@]1(O)c3ccccc3N[C@@H]21
inactive: all assays above

O=C1N[C@@H](Cc2ccccc2)C(=O)N2[C@H]1C[C@@]1(O)c3ccccc3N[C@@H]21
inactive: all assays above
